Results as given in patent US3982999A, “Complexing cresolase with copper chelating agents” (priority 1974, dated 1976).
“And” between values parts separate entries of the source, which are not always exact repeats. Equal values may be shown once. Read-outs that look alike come from different tables or passages of the source.

Experiments:
[1] = system: Tyrosinase (polyphenol oxidase) isolated from mushrooms; details: control 0.0433
Procedure: ^a Tyrosinase (polyphenol oxidase) isolated from mushrooms and purchased from Sigma, St. Louis, Mo. The reaction was carried out in 2 quartz curvette containing 1 ml of phosphate buffer (0.5 M, pH 6.5) 1 ml of substrate (1 mM L-tyrosine in H2 O), 0.5 ml of solvent or drug, 0.5 ml H2 O (for blank), 0.4 ml H2 O and 0.1 ml of enzyme (0.5 mg/ml) for the reaction tube. The reaction was started by the addition of enzyme and the change of optical density (Δ O.D.) was determined at 1 min intervals.

L1210 leukemia cells [2] = experiment: 3-day L1210 cell growth inhibition assay in culture (complete or regular medium); type: cell-based, mouse; details: for L1210 Cell Growth (cell concentration day 3 - day 0): control growth 147.9
Source text: (§1) In this experiment, we further investigated the effects of tyrosinase on L1210 cell growth with two media; 1) complete or regular medium and; 2) tyrosine-phenylalanine depleted medium.
(§2) ^a 3-day cell growth inhibition assay.
^b Cell Growth = (cell concentration day 3 - cell concentration day 0

L1210 leukemia cells [3] = experiment: 3-day L1210 cell growth inhibition assay in tyrosine-phenylalanine depleted medium; type: cell-based, mouse; details: Tyrosine and Phenylalamine Depleted Medium, 0.15 g/ml 8-Hydroxyquinoline
Source text: as §1, §2

[4] = Preliminary toxicity study, single intraperitoneal dose; details: mouse, in vivo, ip; single intraperitoneal (i.p.) dose, suspended in Klucel (0.3% hydroxy-propylcellulose), male BDF1 mice
L1210 mouse leukemia = experiment: Antileukemia activity against L1210 mouse leukemia in BDF1 mice (survival); type: in vivo; details: for T/C (test group mean day of death / control group mean day of death): Day 1 through Day 9, uninjected control group
Procedure: (§3) Male BDF1 mice, initial weight ca 23g, were inoculated i.p. on Day 0 with 10^5 L1210 cells per mouse. Treatment was initiated on Day 1 and continued through Day 9. Animals were weighed on days 1 and 5 to assess toxicity. Agents were prepared fresh daily as follows: 8-OH-quinoline (Eastman Chemical Co.) was dissolved in a small volume of absolute ethanol and diluted to the appropriate concentration with 0.1M sodium phosphate buffer, pH 6.5 (final ethanol concentration: 3%). Dilutions were made in buffer containing 3% ethanol. Tyrosinase^2 (Sigma Chemical Co., lot 121C-9530) was dissolved in buffer containing 3% ethanol. (Previous studies had shown that 3% ethanol had no effect on the activity of the enzyme) For the combination, 8-OH-quinoline was again dissolved in a small volume of ethanol, but diluted with 0.1M sodium phosphate buffer; pH6.5, containing tyrosinase in the appropriate concentration. Dilutions were made in buffer containing both 3% ethanol and tyrosinase so that both ethanol and tyrosinase concentrations remained constant as the 8-OH-quinoline concentration decreased. The combination was "incubated" at room temperature for 30 minutes before administration. The radio of enzyme to substrate administered in the combination was varied from 1:1 to 1:.125.
Actual doses administered and results comprise Table IV. Results are expressed as the ratio (T/C) of the test group mean day of death to control group mean day of death.

[5] = Day 1-5 weight change of L1210-bearing mice to assess toxicity; type: in vivo
Procedure: as §3

[6] = 8-Hydroxyquinoline 0.15 μg/ml, Tyrosinase 0

With `Oc1cccc2cccnc12` [8-Hydroxyquinoline, 8-hydroxyquinoline] the “Reaction Rate” value ([1]; 8-Hydroxyquinoline 10 μg/ml) was 0.0353 Δ OD/Min, the “Reaction Rate” value ([1]; 8-Hydroxyquinoline 50 μg/ml) was 0.0160 Δ OD/Min and the “Reaction Rate” value ([1]; 8-Hydroxyquinoline 200 μg/ml) was 0.0007 Δ OD/Min. For the same compound, the “L1210 Cell Growth (cell concentration day 3 - day 0)” value (L1210 leukemia cells [2]; 8-Hydroxyquinoline 0.1 μg/ml, Tyrosinase 0) was 126.8 × 10^3 cells/ml, the “L1210 Cell Growth % Inhibition (%I)” value (L1210 leukemia cells [2]; [6]) was 61.9% and the “L1210 Cell Growth (cell concentration day 3 - day 0)” value (L1210 leukemia cells [2]; [6]) was 56.4 × 10^3 cells/ml. For the same compound, the “L1210 Cell Growth (cell concentration day 3 - day 0)” value (L1210 leukemia cells [2]; 8-Hydroxyquinoline 0.2 μg/ml, Tyrosinase 0) was 7.4 × 10^3 cells/ml, the “Inhibition (%)” value (L1210 leukemia cells [2]; Completed Medium, 0.15 g/ml 8-Hydroxyquinoline, two experiments) was 12.1% and 21.8% and the “Cell × 10^3 /ml” value (L1210 leukemia cells [2]; Completed Medium, 0.15 g/ml 8-Hydroxyquinoline, two experiments (controls 391.9, 358.5)) was 344.5 × 10^3 /ml and 280.2 × 10^3 /ml. For the same compound, the inhibition at 0.1 µg/mL (L1210 leukemia cells [2]; Mus musculus, L1210, 8-Hydroxyquinoline 0.1 μg/ml, Tyrosinase 0, read-out: L1210 Cell Growth % Inhibition (%I)) was 14.3%, the inhibition at 0.15 µg/mL (L1210 leukemia cells [2]; Mus musculus, L1210, 8-Hydroxyquinoline 0.15 μg/ml, Tyrosinase 0, read-out: L1210 Cell Growth % Inhibition (%I)) was greater than 60% and the inhibition at 0.2 µg/mL (L1210 leukemia cells [2]; Mus musculus, L1210, 8-Hydroxyquinoline 0.2 μg/ml, Tyrosinase 0, read-out: L1210 Cell Growth % Inhibition (%I)) was 95%. The “Inhibition (%)” value (L1210 leukemia cells [3]; two experiments) was 45.6% and 52.2%, the “Cell × 10^3 /ml” value (L1210 leukemia cells [3]; two experiments (controls 102.5, 62.1)) was 55.8 × 10^3 /ml and 29.7 × 10^3 /ml and the LD50 [4] was roughly 75 mg/kg. The “T/C (test group mean day of death / control group mean day of death)” value (L1210 mouse leukemia; 2.5 mg/kg/day) was “.95”, the “T/C (test group mean day of death / control group mean day of death)” value (L1210 mouse leukemia; 5 mg/kg/day) was “.92” and the “T/C (test group mean day of death / control group mean day of death)” value (L1210 mouse leukemia; 10 mg/kg/day) was “.97”. For the same compound, the “T/C (test group mean day of death / control group mean day of death)” value (L1210 mouse leukemia; 20 mg/kg/day) was “.97”, the “Mean day of Death (I.S.D.)” value (L1210 mouse leukemia; mouse, in vivo, listed as 8-OH-quinoline) was 9.5 ± 0.8 days and 9.5 ± 0.4 days and 9.0 ± 0.6 days and 9.3 ± 0.8 days and the “Day 1-5 Weight Change” value ([5]; 2.5 mg/kg/day) was -0.3 gm/mouse. For the same compound, the “Day 1-5 Weight Change” value ([5]; 5 mg/kg/day) was “+1.4 gm/mouse”, the “Day 1-5 Weight Change” value ([5]; 10 mg/kg/day) was “+1.0 gm/mouse” and the “Day 1-5 Weight Change” value ([5]; 20 mg/kg/day) was “+1.0 gm/mouse”.
